Series [1] has as its system CCL5. To be noted: ref Mizumoto et al., 2013; cited from earlier work.
Series [2] deals with the molecule itself. The series can be described thus: NMR.

Take chondroitin sulfate [CS]: the “Affinity for CCL5” value in series [1] is “submicromolar affinities”.

For dermatan sulfate [DS], the “Affinity for CCL5” value in series [1] was “submicromolar affinities”.

B1: E66S CCL5 (natural protein)
chain: MSPYSSDTTPCCFAYIARPLPRAHIKEYFYTSGKCSNPAVVFVTRKNRQVCANPEKKWVREYINSLSMS
Regarding B1, in series [2], the “ratio of dimer-to-monomer (30 uM, 40 °C, without CS444)” value is approximately 1 and the stoichiometry N (as a rule, the number of molecules, sites or subunits per partner or assembly) stood at 2.
